Results: US8735391B2, “Synthesis of functionalized octahydro-isoquinolin-1-one-8-carboxamides, octahydro-isoquinolin-1-one-8-carboxylic esters and analogs, and therapeutic methods” (University of Kansas, priority 2008, dated 2014)
pKi: −log10 of the molar value.

molecular target: DOR (Homo sapiens, UniProt P41143); test: Opioid secondary binding, DOR (Table 4); settings: Opioid secondary binding activity for Formula 10 analogs
Sequence (P41143 whole entry): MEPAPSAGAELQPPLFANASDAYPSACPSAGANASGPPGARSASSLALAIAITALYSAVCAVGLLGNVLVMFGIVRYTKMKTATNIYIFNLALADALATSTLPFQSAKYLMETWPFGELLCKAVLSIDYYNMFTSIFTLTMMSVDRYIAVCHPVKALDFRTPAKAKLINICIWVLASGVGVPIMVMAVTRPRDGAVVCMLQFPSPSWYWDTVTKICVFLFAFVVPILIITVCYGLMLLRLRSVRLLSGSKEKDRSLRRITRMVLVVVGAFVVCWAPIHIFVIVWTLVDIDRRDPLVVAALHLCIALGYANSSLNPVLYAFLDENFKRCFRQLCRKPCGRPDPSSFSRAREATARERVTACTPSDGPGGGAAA

SMILES	pKi
O=C(NCc1cccc(Br)c1)[C@@H]1CC=C[C@@H]2CCN(c3ccccc3)C(=O)[C@@H]21 (racemic) [compound 11949]	6.52
Cc1ccc(CNC(=O)[C@@H]2CC=C[C@@H]3CCN(c4ccccc4)C(=O)[C@@H]32)cc1 (racemic) [compound 11950]	6.53
Cc1cc(C)c(NC(=O)[C@@H]2CC=C[C@@H]3CCN(c4ccccc4)C(=O)[C@@H]32)c(C)c1 (racemic) [compound 11951]	5.37
Cc1ccc(CNC(=O)[C@@H]2CC=C[C@@H]3CCN(Cc4ccccc4)C(=O)[C@@H]32)cc1 (racemic) [compound 11956]	5.63
Cc1cc(C)c(NC(=O)[C@@H]2CC=C[C@@H]3CCN(Cc4ccccc4)C(=O)[C@@H]32)c(C)c1 (racemic) [compound 11957]	5.49
O=C([C@@H]1CC=C[C@@H]2CCN(C3CCCCC3)C(=O)[C@@H]21)N1CCCC1 (racemic) [compound 12084]	5.20
O=C(NCC1CC1)[C@@H]1CC=C[C@@H]2CCN(C3CCCCC3)C(=O)[C@@H]21 (racemic) [compound 12085]	6.32
CN(C)C(=O)[C@@H]1CC=C[C@@H]2CCN(C3CCCCC3)C(=O)[C@@H]21 (racemic) [compound 12086]	< 5.00
O=C(Nc1ccc(Cl)cc1)[C@@H]1CC=C[C@@H]2CCN(C3CCCCC3)C(=O)[C@@H]21 (racemic) [compound 12087]	6.24
O=C(Nc1cc(F)c(F)c(F)c1)[C@@H]1CC=C[C@@H]2CCN(C3CCCCC3)C(=O)[C@@H]21 (racemic) [compound 12088]	5.55
O=C(NCC1CC1)[C@@H]1CC=C[C@@H]2CCN(CC3CC3)C(=O)[C@@H]21 (racemic) [compound 12090]	5.25
O=C(Nc1ccc(Cl)cc1)[C@@H]1CC=C[C@@H]2CCN(CC3CC3)C(=O)[C@@H]21 (racemic) [compound 12092]	5.49
O=C(Nc1cc(F)c(F)c(F)c1)[C@@H]1CC=C[C@@H]2CCN(CC3CC3)C(=O)[C@@H]21 (racemic) [compound 12093]	5.36
O=C([C@@H]1CC=C[C@@H]2CCN(c3ccccc3)C(=O)[C@@H]21)N1CCCC1 (racemic) [compound 12094]	< 5.00
O=C(NCC1CC1)[C@@H]1CC=C[C@@H]2CCN(c3ccccc3)C(=O)[C@@H]21 (racemic) [compound 12095]	5.91
CN(C)C(=O)[C@@H]1CC=C[C@@H]2CCN(c3ccccc3)C(=O)[C@@H]21 (racemic) [compound 12096]	< 5.00
O=C(Nc1ccc(Cl)cc1)[C@@H]1CC=C[C@@H]2CCN(c3ccccc3)C(=O)[C@@H]21 (racemic) [compound 12097]	6.77
O=C(Nc1cc(F)c(F)c(F)c1)[C@@H]1CC=C[C@@H]2CCN(c3ccccc3)C(=O)[C@@H]21 (racemic) [compound 12098]	6.54
O=C1[C@H]2[C@H](C=CC[C@H]2C(=O)N2CCCC2)CCN1Cc1ccccc1 (racemic) [compound 12099]	5.18
O=C(NCC1CC1)[C@@H]1CC=C[C@@H]2CCN(Cc3ccccc3)C(=O)[C@@H]21 (racemic) [compound 12100]	6.27
CN(C)C(=O)[C@@H]1CC=C[C@@H]2CCN(Cc3ccccc3)C(=O)[C@@H]21 (racemic) [compound 12101]	< 5.00
O=C(Nc1cc(F)c(F)c(F)c1)[C@@H]1CC=C[C@@H]2CCN(Cc3ccccc3)C(=O)[C@@H]21 (racemic) [compound 12103]	6.74
C=CCNC(=O)[C@@H]1CC=C[C@@H]2CCN(CC3CCCCC3)C(=O)[C@@H]21 (racemic) [compound 12110]	5.85
CN(C(=O)[C@@H]1CC=C[C@@H]2CCN(CC3CCCCC3)C(=O)[C@@H]21)c1ccccc1 (racemic) [compound 12113]	5.55

SMILES	pKi
CCOC(=O)C1CCCCN1C(=O)[C@@H]1CC=C[C@@H]2CCN(CC3CCCCC3)C(=O)[C@@H]21 (mixture of isomers) [compound 12115]	5.04
NC(=O)c1ccccc1NC(=O)[C@@H]1CC=C[C@@H]2CCN(c3ccccc3)C(=O)[C@@H]21 (racemic) [compound 12117]	6.19
CN(C(=O)[C@@H]1CC=C[C@@H]2CCN(c3ccccc3)C(=O)[C@@H]21)c1ccccc1 (racemic) [compound 12119]	5.40
C=CCNC(=O)[C@@H]1CC=C[C@@H]2CCN(Cc3ccccc3)C(=O)[C@@H]21 (racemic) [compound 12122]	5.46
NC(=O)c1ccccc1NC(=O)[C@@H]1CC=C[C@@H]2CCN(Cc3ccccc3)C(=O)[C@@H]21 (racemic) [compound 12123]	5.23
CCOC(=O)c1ccc(NC(=O)[C@@H]2CC=C[C@@H]3CCN(Cc4ccccc4)C(=O)[C@@H]32)cc1 (racemic) [compound 12124]	5.11
O=C(Nc1ccccc1)[C@@H]1CC=C[C@@H]2CCN(Cc3ccccc3)C(=O)[C@@H]21 (racemic) [compound 12125]	< 5.00
COc1ccc(CNC(=O)[C@@H]2CC=C[C@@H]3CCN(Cc4ccccc4)C(=O)[C@@H]32)cc1OC (racemic) [compound 12126]	< 5.00
CCOC(=O)C1CCCCN1C(=O)[C@@H]1CC=C[C@@H]2CCN(Cc3ccccc3)C(=O)[C@@H]21 (mixture of isomers) [compound 12127]	< 5.00
CC(C)N(C(=O)[C@@H]1CC=C[C@@H]2CCN(CC3CCCCC3)C(=O)[C@@H]21)C1CCCCC1 (racemic) [compound 12134]	5.79
O=C(NCc1ccc(Cl)c(Cl)c1)[C@@H]1CC=C[C@@H]2CCN(CC3CCCCC3)C(=O)[C@@H]21 (racemic) [compound 12136]	5.89
O=C(Nc1cnccn1)[C@@H]1CC=C[C@@H]2CCN(CC3CCCCC3)C(=O)[C@@H]21 (racemic) [compound 12138]	5.78
CC(C)N(C(=O)[C@@H]1CC=C[C@@H]2CCN(c3ccccc3)C(=O)[C@@H]21)C1CCCCC1 (racemic) [compound 12140]	6.38
O=C(NCc1ccc(Cl)c(Cl)c1)[C@@H]1CC=C[C@@H]2CCN(c3ccccc3)C(=O)[C@@H]21 (racemic) [compound 12142]	6.99
O=C(NC1CCCCC1)[C@@H]1CC=C[C@@H]2CCN(CC3CC3)C(=O)[C@@H]21 (racemic) [compound 12152]	5.60
O=C(Nc1ccccc1)[C@@H]1CC=C[C@@H]2CCN(CC3CC3)C(=O)[C@@H]21 (racemic) [compound 12153]	5.18
O=C(Nc1cccc(Cl)c1)[C@@H]1CC=C[C@@H]2CCN(CC3CC3)C(=O)[C@@H]21 (racemic) [compound 12154]	5.93
O=C(Nc1ccc(F)c(F)c1)[C@@H]1CC=C[C@@H]2CCN(CC3CC3)C(=O)[C@@H]21 (racemic) [compound 12155]	5.65
O=C(Nc1ccc(Cl)c(C(F)(F)F)c1)[C@@H]1CC=C[C@@H]2CCN(CC3CC3)C(=O)[C@@H]21 (racemic) [compound 12156]	6.10
O=C(Nc1nccs1)[C@@H]1CC=C[C@@H]2CCN(CC3CC3)C(=O)[C@@H]21 (racemic) [compound 12157]	5.46
CN(C(=O)[C@@H]1CC=C[C@@H]2CCN(C3CCCCC3)C(=O)[C@@H]21)c1ccccc1 (racemic) [compound 12160]	5.53
COc1ccc(-c2cccc(CN3CC[C@H]4C=CC[C@@H](C(=O)Nc5ccc(Cl)c(C(F)(F)F)c5)[C@H]4C3=O)c2)cc1 (racemic) [compound 12161]	5.67
O=C(Nc1ccc(Br)c(C(F)(F)F)c1)[C@@H]1CC=C[C@@H]2CCN(CC3CC3)C(=O)[C@@H]21 (racemic) [compound 12172]	5.89
